Measured values as given in ChEMBL document CHEMBL3045695, “2D and 3D QSAR analyses to predict favorable substitution sites in anilino-monoindolylmaleimides acting as PKCII selective inhibitors” (Med Chem Res, 2011).

What follows are compounds tested against Protein kinase C beta type (Homo sapiens, UniProt P05771) (assay: Inhibition of PKCbeta2 (unknown origin)). Conditions: read-out: IC50.
Chain of Protein kinase C beta type (P05771 whole entry): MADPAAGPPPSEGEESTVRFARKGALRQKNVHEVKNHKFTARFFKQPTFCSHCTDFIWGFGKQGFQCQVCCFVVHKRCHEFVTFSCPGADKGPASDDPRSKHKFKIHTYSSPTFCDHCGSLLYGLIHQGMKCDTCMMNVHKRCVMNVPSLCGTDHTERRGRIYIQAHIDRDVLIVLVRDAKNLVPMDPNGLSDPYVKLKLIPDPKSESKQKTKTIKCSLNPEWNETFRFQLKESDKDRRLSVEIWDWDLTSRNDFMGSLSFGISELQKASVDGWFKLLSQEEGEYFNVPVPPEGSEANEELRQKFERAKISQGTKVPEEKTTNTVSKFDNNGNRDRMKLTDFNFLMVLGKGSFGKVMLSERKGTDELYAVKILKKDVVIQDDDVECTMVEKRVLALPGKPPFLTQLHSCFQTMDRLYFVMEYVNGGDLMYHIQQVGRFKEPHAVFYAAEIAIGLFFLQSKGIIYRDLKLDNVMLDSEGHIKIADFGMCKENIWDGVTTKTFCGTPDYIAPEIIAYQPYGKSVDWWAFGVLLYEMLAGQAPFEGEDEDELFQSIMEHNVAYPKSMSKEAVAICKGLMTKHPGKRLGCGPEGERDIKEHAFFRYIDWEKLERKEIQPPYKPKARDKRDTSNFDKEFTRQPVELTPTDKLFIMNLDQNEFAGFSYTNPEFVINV

Row | Structure (SMILES) | IC50 [nM]
1 | O=C1NC(=O)C(c2c3n(c4ccccc24)C[C@H](CO)C3)=C1Nc1ccccc1 | 14
2 | CN(C)C[C@@H]1Cc2c(C3=C(Nc4ccccc4)C(=O)NC3=O)c3ccccc3n2C1 | 8
3 | CN(C)C[C@H]1CCn2c(c(C3=C(Nc4ccccc4)C(=O)NC3=O)c3ccccc32)C1 | 2
4 | CN(C)C[C@@H]1CCn2c(c(C3=C(Nc4ccccc4)C(=O)NC3=O)c3ccccc32)C1 | 25
5 | CN(C)C[C@@H]1CCc2c(C3=C(Nc4ccccc4)C(=O)NC3=O)c3ccccc3n2C1 | 6
6 | CCN(CC)C[C@H]1Cc2c(C3=C(Nc4ccccc4)C(=O)NC3=O)c3ccccc3n2C1 | 32
7 | CCN(C)C[C@H]1Cc2c(C3=C(Nc4ccccc4)C(=O)NC3=O)c3ccccc3n2C1 | 5

Now from value to compound:

Row | IC50 [nM] | Structure (SMILES)
8 | 2.4 | CCNC[C@H]1Cc2c(C3=C(Nc4ccccc4)C(=O)NC3=O)c3ccccc3n2C1
9 | 1.4 | NC[C@H]1Cc2c(C3=C(Nc4ccccc4)C(=O)NC3=O)c3ccccc3n2C1
10 | 7.9 | CC(=O)NC[C@H]1Cc2c(C3=C(Nc4ccccc4)C(=O)NC3=O)c3ccccc3n2C1
11 | 6 | O=C1NC(=O)C(c2c3n(c4ccccc24)CC[C@H](CO)C3)=C1Nc1ccccc1
12 | 17 | O=C1NC(=O)C(c2c3n(c4ccccc24)CC[C@@H](CO)C3)=C1Nc1ccccc1
13 | 2.2 | CNC[C@H]1Cc2c(C3=C(Nc4ccccc4)C(=O)NC3=O)c3ccccc3n2C1

Same assay, conditions: read-out: pIC50 (converted)

Row | Structure (SMILES) | IC50 [nM]
14 | CN1CCN(CCCn2cc(C3=C(Nc4ccccc4)C(=O)NC3=O)c3ccccc32)CC1 | 23.4
15 | O=C1NC(=O)C(c2cn(CCCN3CCCCC3)c3ccccc23)=C1Nc1ccccc1 | 17.4
16 | N=C(N)SCCCn1cc(C2=C(Nc3ccccc3)C(=O)NC2=O)c2ccccc21 | 2.04

Results, then the compound that gave them:

Row | IC50 [nM] | Structure (SMILES)
17 | 41.7 | CN(C)CCCCCn1cc(C2=C(Nc3ccccc3)C(=O)NC2=O)c2ccccc21
18 | 759 | COc1cccc(NC2=C(c3c[nH]c4ccccc34)C(=O)NC2=O)c1
19 | 490 | Cc1ccc(NC2=C(c3c[nH]c4ccccc34)C(=O)NC2=O)cc1
20 | 1480 | O=C1NC(=O)C(c2c[nH]c3ccccc23)=C1Nc1cccc(C(F)(F)F)c1
21 | 2190 | Cc1ccccc1NC1=C(c2c[nH]c3ccccc23)C(=O)NC1=O
